Among the data in US9045445B2, “Glycine transporter-1 inhibitors, methods of making them, and uses thereof” (Albany Molecular Research, Inc., priority 2010, dated 2015) are IC50 values, retold here.

The target in experiment [1] is T1, glycine transporter-1 (GlyT-1) (Homo sapiens, UniProt P48067).
T1 construct: JAR cells (ATCC#HTB-144), which endogenously express GlyT-1; host or cells: JAR human choriocarcinoma cells
T1 sequence (P48067 1-706): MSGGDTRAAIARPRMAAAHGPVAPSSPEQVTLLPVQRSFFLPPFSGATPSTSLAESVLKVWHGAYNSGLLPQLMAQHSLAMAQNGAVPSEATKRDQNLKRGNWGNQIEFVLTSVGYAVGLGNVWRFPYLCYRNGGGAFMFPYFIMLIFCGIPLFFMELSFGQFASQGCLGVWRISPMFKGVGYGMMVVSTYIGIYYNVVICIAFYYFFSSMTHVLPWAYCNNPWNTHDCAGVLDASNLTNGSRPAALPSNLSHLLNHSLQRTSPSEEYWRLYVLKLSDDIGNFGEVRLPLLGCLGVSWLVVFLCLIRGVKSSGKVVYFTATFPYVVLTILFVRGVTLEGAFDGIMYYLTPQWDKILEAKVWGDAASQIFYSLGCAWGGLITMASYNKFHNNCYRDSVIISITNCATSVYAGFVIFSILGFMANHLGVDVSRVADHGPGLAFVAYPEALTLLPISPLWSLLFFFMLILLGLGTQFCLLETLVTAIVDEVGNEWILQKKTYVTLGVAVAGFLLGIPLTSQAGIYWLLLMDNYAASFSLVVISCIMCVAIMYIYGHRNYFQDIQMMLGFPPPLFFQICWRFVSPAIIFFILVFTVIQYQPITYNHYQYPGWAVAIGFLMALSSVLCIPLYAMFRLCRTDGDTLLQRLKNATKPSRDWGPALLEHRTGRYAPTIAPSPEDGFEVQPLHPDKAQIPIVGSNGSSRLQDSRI
Put plainly: [14C]glycine uptake assay in JAR cells endogenously expressing GlyT-1 (scintillation proximity). In kind it is cell-based. The method, boiled down: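 IC50 comes from a four-parameter fit of nine-point, duplicate curves measuring inhibition of 5 μM [14C]glycine uptake, read by scintillation proximity after 3 h at 37 °C. Cells are human JAR, which express GlyT-1 endogenously, given 10 min compound pre-treatment in pH 7.4 buffer with 5 mM alanine and 0.75% DMSO.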
On the technique in general: SPA uses beads or plates that emit light when radiolabelled molecules are held near them.

Experiment [2] deals with T2, glycine transporter-2 (GlyT-2) (Homo sapiens, UniProt Q9Y345).
T2 construct: expressed in transfected cells
T2 sequence (Q9Y345 1-797): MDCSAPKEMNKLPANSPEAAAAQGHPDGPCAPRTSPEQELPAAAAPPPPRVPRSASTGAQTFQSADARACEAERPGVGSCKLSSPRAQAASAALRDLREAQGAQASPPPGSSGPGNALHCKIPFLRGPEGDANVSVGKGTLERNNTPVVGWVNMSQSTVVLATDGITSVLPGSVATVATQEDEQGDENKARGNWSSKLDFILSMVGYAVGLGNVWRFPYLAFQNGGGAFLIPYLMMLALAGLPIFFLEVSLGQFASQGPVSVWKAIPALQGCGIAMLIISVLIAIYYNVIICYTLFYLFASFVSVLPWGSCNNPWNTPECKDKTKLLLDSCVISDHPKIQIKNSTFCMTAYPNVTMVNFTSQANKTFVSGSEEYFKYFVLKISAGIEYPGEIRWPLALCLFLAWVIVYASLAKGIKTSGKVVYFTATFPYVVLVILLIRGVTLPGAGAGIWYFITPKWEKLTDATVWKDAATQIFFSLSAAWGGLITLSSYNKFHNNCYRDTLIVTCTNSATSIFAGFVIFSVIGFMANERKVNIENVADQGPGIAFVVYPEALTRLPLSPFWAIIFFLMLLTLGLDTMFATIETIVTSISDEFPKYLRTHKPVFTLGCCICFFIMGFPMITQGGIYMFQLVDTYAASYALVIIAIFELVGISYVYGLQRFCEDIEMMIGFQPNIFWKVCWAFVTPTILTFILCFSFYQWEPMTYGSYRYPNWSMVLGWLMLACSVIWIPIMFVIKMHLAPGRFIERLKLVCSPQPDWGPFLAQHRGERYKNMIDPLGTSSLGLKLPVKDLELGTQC
Put plainly: [14C]glycine uptake assay in HEK-GlyT-2 transfected cells. The following applies: HEK-GlyT-2 cells. In kind it is cell-based.

Where [3] appears, read: JAR cells, [14C]glycine 5 μM, 3 hour incubation, read-out: GlyT-1 IC50.

Structures are written as SMILES. Structures can show the parent of a compound that is named as a salt. Where two headings read alike, the source gives them in different places. Some results are limits rather than exact numbers.

In general, IC50 refers to the midpoint of a concentration-inhibition curve. On to `CCCS(=O)(=O)N1CCN(C2(CNC(=O)c3ccccc3C(F)(F)F)CCC(F)(F)CC2)CC1` [compound 132, N-((4,4-Difluoro-1-(4-(propylsulfonyl)piperazin-1-yl)cyclohexyl)methyl)-2-(trifluoromethyl) benzamide Hydrochloride], for which the IC50 was 64 nM in experiment [1] (setting [3]) and over 75000 nM in experiment [2].

Consider `CCCS(=O)(=O)N1CCN(C2(CNC(=O)c3c(F)ccc(F)c3Cl)CCCCCC2)CC1` [compound 54, 2-Chloro-3,6-difluoro-N-((1-(4-(propylsulfonyl)piperazin-1-yl)cycloheptyl)methyl) benzamide Hydrochloride], for which the IC50 in experiment [1] (setting [3]) is 20 nM; in experiment [2], over 75000 nM.

In the case of `CCCS(=O)(=O)N1CCN(C2(CNC(=O)c3cccc(C(F)(F)F)c3Cl)CCCCCC2)CC1` [compound 59, 2-Chloro-N-((1-(4-(propylsulfonyl)piperazin-1-yl)cycloheptyl)methyl)-3-(trifluoromethyl) benzamide Hydrochloride], the values for the concentration for half-maximal inhibition (IC50) in experiment [1] (setting [3]) and in experiment [2] were 128 nM and over 75000 nM, respectively.

As to `CCCS(=O)(=O)N1CCN(C2(CNC(=O)c3c(OC)cc(C(F)(F)F)cc3C(F)(F)F)CCCCC2)CC1` [compound 21, 2-Methoxy-N-((1(1-(4-(propylsulfonyl)piperazin-1-yl)cyclohexyl)methyl)-4,6-bis(trifluoromethyl)benzamide Hydrochloride], the IC50 in experiment [1] (setting [3]) was found to be 4 nM; in experiment [2], 39000 nM.

Take `Cn1cnc(S(=O)(=O)N2CCN(C3(CNC(=O)c4c(F)cc(F)cc4F)CCC(F)(F)CC3)CC2)c1` [compound 167, N-((4,4-Difluoro-1-(4-(1-methyl-1H-imidazol-4-ylsulfonyl)piperazin-1-yl)cyclohexyl)methyl)-2,4,6-trifluorobenzamide Hydrochloride]: the IC50 is 11 nM in experiment [1] (setting [3]) and over 75000 nM in experiment [2].

In the case of `CCCS(=O)(=O)N1CCN(C2(CNC(=O)c3c(F)cc(Cl)cc3F)CCC(F)(F)CC2)CC1` [compound 259, 4-Chloro-N-((4,4-difluoro-1-(4-(propylsulfonyl)piperazin-1-yl)cyclohexyl)methyl)-2,6-difluorobenzamide Hydrochloride], the IC50 is 25 nM in experiment [1] (setting [3]) and over 75000 nM in experiment [2].

Regarding `CCCS(=O)(=O)N1CCN(C2(CNC(=O)c3c(OC)cc(F)cc3SC)CCCCC2)CC1` [compound 20, 4-Fluoro-2-methoxy-6-(methylthio)-N-((1-(4-(propylsulfonyl)piperazin-1-yl)cyclohexyl)methyl)benzamide Hydrochloride], the IC50 is 6 nM in experiment [1] (GlyT-1 IC50 (nM)) and over 75000 nM in experiment [2].

On to `O=C(NCC1(N2CCN(S(=O)(=O)N3CCCC3)CC2)CCC(F)(F)CC1)c1ccc(C(F)(F)F)cc1Cl` [compound 270, 2-Chloro-N-((4,4-difluoro-1-(4-(pyrrolidin-1-ylsulfonyl)piperazin-1-yl)cyclohexyl)methyl)-4-(trifluoromethyl)benzamide Hydrochloride], for which the IC50 in experiment [1] (setting [3]) is 47 nM; in experiment [2] it was over 75000 nM.

As for `CCCS(=O)(=O)N1CCN(C2(CNC(=O)c3c(N)cccc3F)CCCCC2)CC1` [compound 41, 2-Amino-6-fluoro-N-((1-(4-(propylsulfonyl)piperazin-1-yl)cyclohexyl)methyl) benzamide Hydrochloride], the IC50 is 71 nM in experiment [1] (setting [3]) and over 75000 nM in experiment [2].

As for `O=C(NCC1(N2CCN(S(=O)(=O)C3CCC3)CC2)CCCCC1)c1ccc(Cl)cc1Cl` [compound 93, 2,4-Dichloro-N-((1-(4-(cyclobutylsulfonyl)piperazin-1-yl)cyclohexyl)methyl)benzamide Hydrochloride], the IC50 in experiment [1] (setting [3]) was 319 nM; in experiment [2], over 75000 nM.

Consider `CCCS(=O)(=O)N1CCN(C2(CNC(=O)c3ccccc3OC)CCC(F)(F)CC2)CC1` [compound 133, N-((4,4-Difluoro-1-(4-(propylsulfonyl)piperazin-1-yl)cyclohexyl)methyl)-2-methoxybenzamide Hydrochloride], for which the IC50 in experiment [1] (setting [3]) was 48 nM; in experiment [2], over 75000 nM.

In the case of `CC(NC(=O)c1ccc(C(F)(F)F)cc1Cl)C1(N2CCN(S(=O)(=O)c3cn(C)nn3)CC2)CCC(F)(F)CC1` (racemic) [compound 222, (±)-2-Chloro-N-(1-(4,4-difluoro-1-(4-(1-methyl-1H-1,2,3-triazol-4-ylsulfonyl)piperazin-1-yl)cyclohexyl)ethyl)-4-(trifluoromethyl) benzamide Hydrochloride], the IC50 was 1 nM in experiment [1] (setting [3]) and over 75000 nM in experiment [2].

On to `CCCS(=O)(=O)N1CCN(C2(CNC(=O)c3c(Cl)cc(C(F)(F)F)cc3C(F)(F)F)CCC(F)(F)CC2)CC1` [compound 254, 2-Chloro-N-((4,4-difluoro-1-(4-(propylsulfonyl)piperazin-1-yl)cyclohexyl)methyl)-4,6-bis(trifluoromethyl) benzamide Hydrochloride], for which the IC50 in experiment [1] (setting [3]) was 7 nM; in experiment [2], over 75000 nM.

As to `CCCS(=O)(=O)N1CCN(C2(CNC(=O)c3c(C)cccc3F)CCCCC2)CC1` [compound 49, 2-Fluoro-6-methyl-N-((1-(4-(propylsulfonyl)piperazin-1-yl)cyclohexyl)methyl) benzamide Hydrochloride], the IC50 was 16 nM in experiment [1] (setting [3]) and over 75000 nM in experiment [2].

In the case of `CCCS(=O)(=O)N1CCN(C2(CNC(=O)c3ccc(Cl)cc3Cl)CCOCC2)CC1` [compound 118, 2,4-Dichloro-N-((4-(4-(propylsulfonyl)piperazin-1-yl)tetrahydro-2H-pyran-4-yl)methyl)benzamide Hydrochloride], the IC50 in experiment [2] was over 75000 nM.

In experiment [2], `CCCS(=O)(=O)N1CCN(C2(CNC(=O)c3ccccc3)CCCCC2)CC1` [compound 24, N-((1-(4-(Propylsulfonyl)piperazin-1-yl)cyclohexyl)methyl) benzamide Hydrochloride] had an IC50 of over 75000 nM.

For the molecule `CCCS(=O)(=O)N1CCN(C2(CNC(=O)c3c(Cl)cccc3OC(F)(F)F)CCC(F)(F)CC2)CC1` [compound 159, 2-Chloro-N-((4,4-difluoro-1-(4-(propylsulfonyl)piperazin-1-yl)cyclohexyl)methyl)-6-(trifluoromethoxy) benzamide Hydrochloride], the IC50 in experiment [1] (setting [3]) worked out at 29 nM.

Turning to `Cn1cnc(S(=O)(=O)N2CCN(C3(CNC(=O)c4c(F)cccc4C(F)(F)F)CCC(F)(F)CC3)CC2)c1` [compound 172, N-((4,4-Difluoro-1-(4-(1-methyl-1H-imidazol-4-ylsulfonyl)piperazin-1-yl)cyclohexyl)methyl)-2-fluoro-6-(trifluoromethyl)benzamide Hydrochloride], the IC50 in experiment [1] (setting [3]) turned out to be 3 nM.

Turning to `CCCS(=O)(=O)N1CCN(C2(CNC(=O)c3ccc(F)cc3C)CCCCC2)CC1` [compound 10, 4-Fluoro-2-methyl-N-((1-(4-(propylsulfonyl)piperazin-1-yl)cyclohexyl)methyl) benzamide Hydrochloride], in experiment [1] (setting [3]), the IC50 amounted to 28 nM.

As to `Cc1ccc(C(=O)NCC2(N3CCN(S(=O)(=O)c4cn(C)nn4)CC3)CCC(F)(F)CC2)c(Cl)c1F` [compound 242, 2-Chloro-N-((4,4-difluoro-1-(4-(1-methyl-1H-1,2,3-triazol-4-ylsulfonyl)piperazin-1-yl)cyclohexyl)methyl)-3-fluoro-4-methylbenzamide Hydrochloride], in experiment [1] (setting [3]), the IC50 amounted to 1 nM.
